Patent US8450354B2, “Substituted imidazo[1,2-b]pyridazine derivatives, pharmaceutical compositions, and methods of use as β-secretase inhibitors” (High Point Pharmaceuticals, LLC, priority 2010, dated 2013)

These compounds were tested against T1, BACE-1 enzyme (Homo sapiens, UniProt P56817) (assay: BACE Fluorescence Resonance Energy Transfer (FRET) Assay). Conditions: pH 4-4.5, 30 min pre-incubation, about 1.5 hours reaction, asterisk = mean.
T1 construct: purchased R & D Systems 931AS
Type: biochemical
Procedure: BACE Fluorescence Resonance Energy Transfer (FRET) Assay
In the following assay, the proteolytic activity of BACE is measured by observing cleavage of a fluorescent group from a peptide substrate containing a rhodamine fluorescent donor and a quenching acceptor.
The inhibitory activity of compounds of Formula (I) may be compared to a statine derived control inhibitor STA200 (MP Biomedical Cat. #STA-200). The cleavage reaction occurs when a BACE-1 substrate (Invitrogen, Cat. #P2986) was added to a reaction mixture containing BACE-1 enzyme (R & D Systems, Cat. #931AS) and allowed to proceed for about 1.5 hours. Fluorescence, used as a marker of BACE activity, is monitored using 540 nm excitation and 585 nm emission wavelengths (Envision, Perkin Elmer).
A typical assay reaction contains BACE-1 enzyme-in assay buffer (50 mM sodium acetate, pH 4-4.5, 0.01% CHAPS (3-[(3-Cholamidopropyl)dimethylammonio]-1-propanesulfonate), 0.0125% TritonX-100, 0.006% EDTA) which is pre-incubated for 30 minutes with test compound in 7.5% DMSO. The reaction is initiated with the addition of BACE-1 substrate in assay buffer and allowed to proceed for about 1.5 hours at room temperature. Assays are conducted in black 384-well microtiter plates and scanned at room temperature using 540 nm excitation and 585 nm emission wavelengths.
In some instances, the percent inhibition at a given concentration is reported instead of the IC50.

T1 sequence (P56817 46-457 limits assumed): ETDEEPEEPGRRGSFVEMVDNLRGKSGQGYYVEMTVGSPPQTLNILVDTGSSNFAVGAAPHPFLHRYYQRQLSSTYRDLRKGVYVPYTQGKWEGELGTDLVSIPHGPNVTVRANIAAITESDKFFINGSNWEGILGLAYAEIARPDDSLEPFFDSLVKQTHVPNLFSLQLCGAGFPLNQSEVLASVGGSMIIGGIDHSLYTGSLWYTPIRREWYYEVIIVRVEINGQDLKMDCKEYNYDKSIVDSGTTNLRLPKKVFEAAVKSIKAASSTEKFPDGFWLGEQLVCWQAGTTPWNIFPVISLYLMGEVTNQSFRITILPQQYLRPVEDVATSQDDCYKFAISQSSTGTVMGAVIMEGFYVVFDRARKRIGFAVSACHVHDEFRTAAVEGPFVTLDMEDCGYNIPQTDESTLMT

| IC50 [µM] | SMILES |
| --- | --- |
| 0.105 | COc1ccc2nc(C(=O)Nc3nc4cc(OCc5ccccc5)ccc4[nH]3)cn2n1 [Example 4] |
| 0.095 | COc1ccc2nc(C(=O)Nc3nc4cc(OCc5ccc(C(F)(F)F)cc5)ccc4[nH]3)cn2n1 [Example 5] |
| 0.244 | Cc1ccc2nc(C(=O)Nc3nc4cc(OCc5ccccc5)ccc4[nH]3)cn2n1 [Example 6] |
| 0.28 | COCCOc1ccc2nc(C(=O)Nc3nc4cc(-c5cccc(C(F)(F)F)c5)ccc4[nH]3)cn2n1 [Example 8, 6-(2-Methoxy-ethoxy)-imidazo[1,2-b]pyridazine-2-carboxylic acid [5-(3-trifluoromethyl-phenyl)-1H-benzoimidazol-2-yl]-amide] |
| 0.32 | CCOCCOCCOc1ccc2nc(C(=O)Nc3nc4cc(-c5cccc(C(F)(F)F)c5)ccc4[nH]3)cn2n1 [Example 11] |
| 0.368 | CCOCCCOc1ccc2nc(C(=O)Nc3nc4cc(-c5cccc(C(F)(F)F)c5)ccc4[nH]3)cn2n1 [Example 13] |
| 0.152 | CNCCOc1ccc2nc(C(=O)Nc3nc4cc(-c5cc(F)cc(Cl)c5)ccc4[nH]3)cn2n1 [Example 14] |
| 0.272 | CN(C)CCOc1ccc2nc(C(=O)Nc3nc4cc(-c5cc(F)cc(Cl)c5)ccc4[nH]3)cn2n1 [Example 15] |
| 0.289 | O=C(Nc1nc2cc(-c3cc(F)cc(Cl)c3)ccc2[nH]1)c1cn2nc(OC3CCOCC3)ccc2n1 [Example 16] |
| 0.171 | CN(C)CCCOc1ccc2nc(C(=O)Nc3nc4cc(-c5cc(F)cc(Cl)c5)ccc4[nH]3)cn2n1 [Example 17] |
| 0.219 | CN1CCC(Oc2ccc3nc(C(=O)Nc4nc5cc(-c6cc(F)cc(Cl)c6)ccc5[nH]4)cn3n2)CC1 [Example 18] |
| 0.166 | O=C(Nc1nc2cc(-c3cc(F)cc(Cl)c3)ccc2[nH]1)c1cn2nc(OCCN3CCCC3)ccc2n1 [Example 19] |
| 0.205 | CCN(CC)CCCOc1ccc2nc(C(=O)Nc3nc4cc(-c5cc(F)cc(Cl)c5)ccc4[nH]3)cn2n1 [Example 20] |
| 0.318 | O=C(Nc1nc2cc(-c3cccc(OC(F)(F)F)c3)ccc2[nH]1)c1cn2nc(OCCN3CCCC3)ccc2n1 [Example 21] |
| 0.249 | CCOCCOc1ccc2nc(C(=O)Nc3nc4cc(-c5cccc(C(F)(F)F)c5)ccc4[nH]3)cn2n1 [Example 22] |
| 0.272 | CC(C)OCCOc1ccc2nc(C(=O)Nc3nc4cc(-c5cccc(C(F)(F)F)c5)ccc4[nH]3)cn2n1 [Example 23] |
| 0.291 | CC(C)(C)NCCOc1ccc2nc(C(=O)Nc3nc4cc(-c5cccc(C(F)(F)F)c5)ccc4[nH]3)cn2n1 [Example 24] |
| 0.253 | CC(C)NCCOc1ccc2nc(C(=O)Nc3nc4cc(-c5cccc(OC(F)(F)F)c5)ccc4[nH]3)cn2n1 [Example 28] |
| 0.27 | CC(C)(C)NCCOc1ccc2nc(C(=O)Nc3nc4cc(-c5cccc(OC(F)(F)F)c5)ccc4[nH]3)cn2n1 [Example 30] |
| 0.278 | O=C(Nc1nc2cc(-c3cccc(OC(F)(F)F)c3)ccc2[nH]1)c1cn2nc(OCCNC3CCCCC3)ccc2n1 [Example 33] |
| 0.27 | O=C(Nc1nc2cc(-c3cccc(OC(F)(F)F)c3)ccc2[nH]1)c1cn2nc(OCCN3CCCCCC3)ccc2n1 [Example 34] |

| IC50 [µM] | SMILES |
| --- | --- |
| 0.332 | CN(C)CCN(C)CCOc1ccc2nc(C(=O)Nc3nc4cc(-c5cccc(OC(F)(F)F)c5)ccc4[nH]3)cn2n1 [Example 36] |
| 0.322 | CN(CCOc1ccc2nc(C(=O)Nc3nc4cc(-c5cccc(OC(F)(F)F)c5)ccc4[nH]3)cn2n1)c1ccccn1 [Example 37] |
| 0.27 | CC(C)NCCOc1ccc2nc(C(=O)Nc3nc4cc(-c5cccc(C(F)(F)F)c5)ccc4[nH]3)cn2n1 [Example 38] |
| 0.197 | O=C(Nc1nc2cc(-c3cccc(C(F)(F)F)c3)ccc2[nH]1)c1cn2nc(OCCNC3CCCCC3)ccc2n1 [Example 39] |
| 0.365 | CC(C)N(CCOc1ccc2nc(C(=O)Nc3nc4cc(-c5cccc(C(F)(F)F)c5)ccc4[nH]3)cn2n1)C(C)C [Example 42] |
| 0.241 | CN(CCOc1ccc2nc(C(=O)Nc3nc4cc(-c5cccc(C(F)(F)F)c5)ccc4[nH]3)cn2n1)c1ccccn1 [Example 44] |
| 0.315 | CC(C)N(CCOc1ccc2nc(C(=O)Nc3nc4cc(-c5cc(F)cc(Cl)c5)ccc4[nH]3)cn2n1)C(C)C [Example 48] |
| 0.173 | O=C(Nc1nc2cc(-c3cc(F)cc(Cl)c3)ccc2[nH]1)c1cn2nc(OCCNC3CCCCC3)ccc2n1 [Example 51] |
| 0.223 | CC(C)(C)NCCOc1ccc2nc(C(=O)Nc3nc4cc(-c5cc(F)cc(Cl)c5)ccc4[nH]3)cn2n1 [Example 52] |
| 0.212 | CN1CCN(CCOc2ccc3nc(C(=O)Nc4nc5cc(-c6cc(F)cc(Cl)c6)ccc5[nH]4)cn3n2)CC1 [Example 55] |
| 0.176 | CN(C)CCOCCOc1ccc2nc(C(=O)Nc3nc4cc(-c5cccc(OC(F)(F)F)c5)ccc4[nH]3)cn2n1 [Example 56] |
| 0.194 | CN(C)CCOCCOc1ccc2nc(C(=O)Nc3nc4cc(-c5cccc(C(F)(F)F)c5)ccc4[nH]3)cn2n1 [Example 59] |
| 0.14 | NCCOc1ccc2nc(C(=O)Nc3nc4cc(-c5cccc(C(F)(F)F)c5)ccc4[nH]3)cn2n1 [Example 60] |
| 0.335 | COCCOc1ccc2nc(C(=O)Nc3nc4cc(-c5ccc(Cl)c(C(F)(F)F)c5)ccc4[nH]3)cn2n1 [Example 62] |
| 0.361 | CN(C)CCOc1ccc2nc(C(=O)Nc3nc4cc(-c5ccc(Cl)c(C(F)(F)F)c5)ccc4[nH]3)cn2n1 [Example 63] |
| 0.238 | O=C(Nc1nc2cc(-c3cccc(C(F)(F)F)c3)ccc2[nH]1)c1cn2nc(N3CCOCC3)ccc2n1 [Example 65] |
| 0.344 | CN1CCC[C@H]1COc1ccc2nc(C(=O)Nc3nc4cc(-c5cc(F)cc(Cl)c5)ccc4[nH]3)cn2n1 [Example 68] |
| 0.381 | CNCCOc1ccc2nc(C(=O)Nc3nc4cc(-c5cccc(C(F)(F)F)c5)ccc4[nH]3)cn2n1 [Example 70] |
| 0.327 | O=C(Nc1nc2cc(-c3cccc(C(F)(F)F)c3)ccc2[nH]1)c1cn2nc(OCCN3CCCC3)ccc2n1 [Example 71] |
| 0.216 | CN(C)CCCOc1ccc2nc(C(=O)Nc3nc4cc(-c5cccc(C(F)(F)F)c5)ccc4[nH]3)cn2n1 [Example 72] |
| 0.346 | C[C@@H](N)COc1ccc2nc(C(=O)Nc3nc4cc(-c5cccc(C(F)(F)F)c5)ccc4[nH]3)cn2n1 [Example 73] |

| IC50 [µM] | SMILES |
| --- | --- |
| 0.219 | C[C@H](N)COc1ccc2nc(C(=O)Nc3nc4cc(-c5cccc(C(F)(F)F)c5)ccc4[nH]3)cn2n1 [Example 74] |
| 0.36 | O=C(Nc1nc2cc(-c3cccc(C(F)(F)F)c3)ccc2[nH]1)c1cn2nc(O[C@H]3CCCNC3)ccc2n1 [Example 75] |
| 0.23 | N[C@@H]1CCN(c2ccc3nc(C(=O)Nc4nc5cc(-c6cccc(C(F)(F)F)c6)ccc5[nH]4)cn3n2)C1 [Example 76] |
| 0.242 | N[C@H]1CCN(c2ccc3nc(C(=O)Nc4nc5cc(-c6cccc(C(F)(F)F)c6)ccc5[nH]4)cn3n2)C1 [Example 77] |
| 0.337 | O=C(Nc1nc2cc(-c3cccc(C(F)(F)F)c3)ccc2[nH]1)c1cn2nc(N[C@H]3CCNC3)ccc2n1 [Example 78] |
| 0.2 | O=C(Nc1nc2cc(-c3cccc(C(F)(F)F)c3)ccc2[nH]1)c1cn2nc(N3CCNCC3)ccc2n1 [Example 80] |
| 0.393 | CC1CCC(c2ccc3[nH]c(NC(=O)c4cn5nc(N6CCOCC6)ccc5n4)nc3c2)CC1 (centres unmarked) [Example 81] |
| 1.07 | CC1(C)CCC(c2ccc3[nH]c(NC(=O)c4cn5nc(C6CCNCC6)ccc5n4)nc3c2)CC1 [Example 82] |
| 0.56 | COC1CCN(c2ccc3nc(C(=O)Nc4nc5cc(C6CCC(C)(C)CC6)ccc5[nH]4)cn3n2)CC1 [Example 87] |
| 0.476 | CC1(C)CCC(c2ccc3[nH]c(NC(=O)c4cn5nc(OC6CCC(O)CC6)ccc5n4)nc3c2)CC1 (centres unmarked) [Example 88] |
| 0.16 | CO[C@@H]1CCN(c2ccc3nc(C(=O)Nc4nc5cc(C6CCC(C)(C)CC6)ccc5[nH]4)cn3n2)C1 [Example 89] |
| 1.38 | CO[C@@H]1CCN(c2ccc3nc(C(=O)Nc4nc5cc(-c6ccc(C)s6)ccc5[nH]4)cn3n2)C1 [Example 90] |
| 2.34 | CO[C@H]1CCN(c2ccc3nc(C(=O)Nc4nc5cc(-c6ccc(C)s6)ccc5[nH]4)cn3n2)C1 [Example 91] |
| 0.431 | O=C(Nc1nc2cc(C3CCCC3)ccc2[nH]1)c1cn2nc(N3CC[C@@H](O)C3)ccc2n1 [Example 95] |
| 0.328 | O=C(O)CCNc1ccc2nc(C(=O)Nc3nc4cc(-c5cccc(Cl)c5)ccc4[nH]3)cn2n1 [Example 96] |
| 0.161 | O=C(O)COc1ccc2nc(C(=O)Nc3nc4cc(-c5cccc(C(F)(F)F)c5)ccc4[nH]3)cn2n1 [Example 97] |
| 0.334 | C[C@@H](CO)Oc1ccc2nc(C(=O)Nc3nc4cc(-c5cccc(OC(F)(F)F)c5)ccc4[nH]3)cn2n1 [Example 103] |
| 0.268 | CN(C)CC(O)COc1ccc2nc(C(=O)Nc3nc4cc(-c5cccc(C(F)(F)F)c5)ccc4[nH]3)cn2n1 (centres unmarked) [Example 110] |
| 1.18 | CCC[C@H](O)COc1ccc2nc(C(=O)Nc3nc4cc(-c5cc(F)cc(Cl)c5)ccc4[nH]3)cn2n1 [Example 125] |
| 0.293 | O=C(Nc1nc2cc(-c3cc(F)cc(Cl)c3)ccc2[nH]1)c1cn2nc(OCC[C@@H](O)CO)ccc2n1 [Example 129] |
